Reference: patent US6344351B2, “(R)-transaminase from arthrobacter” (Kaneka Corporation, priority 1995, dated 2002)
Read-outs that look alike come from different tables or passages of the source.

How the values were obtained:
[1] = tested on: Arthrobacter species KNK168 strain; assay: Amino donor test; (R)-DMA formation by cultured cells; assay type: cell-based
Experimental: The cultured cells were harvested by centrifugation, and the harvested cells were suspended in a reaction mixture (pH 8.5) containing 1% of 1-(3,4-dimethoxyphenyl)-2-propanone, […] of Triton X-100, and 1% of an amino donor shown in Table 2. The components were reacted at 35° C. for 20 hours.

[2] = tested on: Arthrobacter species KNK168 strain; assay: Inducer added to culture medium; (R)-DMA formation by the separated cells; assay type: cell-based; conditions: cells reacted 30° C., 20 hours, 1% 1-(3,4-dimethoxyphenyl)-2-propanone, 1% (RS)-1-methylpropylamine
Experimental: When culturing the Arthrobacter species KNK168 strain by the method described in Example 1, (RS)-1-methylpropylamine, (RS)-1-methylbutylamine, (RS)-3-amino-2,2-dimethylbutane, (RS)-2-amino-1-butanol, or (RS)-1-phenylethylamine was added to the medium in place of (R)-1-(3,4-dimethoxyphenyl)-2-aminopropane ((R)-DMA). The cells were separated from the medium, and the reaction was carried out at 30° C. for 20 hours using the above cells in a reaction mixture containing 1% of 1-(3,4-dimethoxyphenyl)-2-propanone and 1% of (RS)-1-methylpropylamine.

[3] = tested on: (R)-form-specific transaminase of Arthrobacter sp. KNK168; assay: Reactivity of purified transaminase of present invention to amino compounds, pyruvic acid as amino acceptor; assay type: biochemical; parameters: Transaminase of Present Invention (Relative Activity: %), Substrate Specificity: concentration or dose not given beside the values; conditions: for Transaminase of Present Invention (Relative Activity: %), Substrate Specificity: pyruvic acid as amino acceptor
Excerpt: (§1) The differences with the ω-amino acid transaminase derived from Pseudomonas sp. F-1 (Agric. Biol. Chem., 42, 2363-2367 (1978), Agric. Biol. Chem., 43, 1043-1048 (1979), J. Biol. Chem., 258, 2260-2265 (1983)) which have been well studied among the ω-amino acid transaminases, and with the benzylamine transaminase of Okada et al. (Japanese Patent Laid-Open No. Hei 6-178685) are summarized and shown in Table 2. In a case of the transaminase action in the present invention, the data of the purified enzyme are used, and in cases of those by other two enzymes, the data of the purified enzymes which are disclosed in each of the literature publication and patent publication are used. Pyruvic acid is used as an amino acceptor in all cases.
Using the purified enzyme obtained in Example 9, reactivities to various amino compounds when using pyruvic acid as an amino acceptor were evaluated. 150 μl of a solution of the purified enzyme diluted ten-folds was added to 150 μl of a substrate solution (0.1 M potassium phosphate buffer (pH 8.3), 40 mM pyruvic acid, 0.1 mM pyridoxal phosphate, and 40 mM various amino compounds). The components were reacted at 30° C. for 1 hour. The reaction tube was transferred into boiling water to stop the reaction, and, thereafter, a part of the reaction mixture was diluted five-folds. Ten μl of 0.1 M boric acid buffer (pH 8.0) and 20 μl of an ethanol solution of 80 mM of 4-fluoro-7-nitro-2,1,3-benzoxadiazole (NBD-F) were added to 10 μl of the above-mentioned diluted reaction mixture. The components were reacted at 60° C. for 1 minute, and, thereafter, the reaction mixture was ice-cooled, and 460 μl of 5 mM HCl was added thereto. This reaction mixture was analyzed by high-performance liquid chromatography using fine pack C18-5 column and using a 0.1 M potassium phosphate buffer (pH 6.5) and CH3CN (90:10) as an eluent solution to detect formation of alanine-NBD using excitation wavelength of 470 nm and using detection wave of […]. The results thereof are shown in Table 8 in terms of relative activity in the case of using […] as a substrate.

[4] = molecular target: T1, ω-amino acid transaminase derived from Pseudomonas sp. F-1 (Pseudomonas putida, UniProt P28269); parameters: concentration or dose not given beside the values; conditions: purified enzyme, literature data; pyruvic acid as amino acceptor; cited from earlier work
T1 sequence (P28269 1-449): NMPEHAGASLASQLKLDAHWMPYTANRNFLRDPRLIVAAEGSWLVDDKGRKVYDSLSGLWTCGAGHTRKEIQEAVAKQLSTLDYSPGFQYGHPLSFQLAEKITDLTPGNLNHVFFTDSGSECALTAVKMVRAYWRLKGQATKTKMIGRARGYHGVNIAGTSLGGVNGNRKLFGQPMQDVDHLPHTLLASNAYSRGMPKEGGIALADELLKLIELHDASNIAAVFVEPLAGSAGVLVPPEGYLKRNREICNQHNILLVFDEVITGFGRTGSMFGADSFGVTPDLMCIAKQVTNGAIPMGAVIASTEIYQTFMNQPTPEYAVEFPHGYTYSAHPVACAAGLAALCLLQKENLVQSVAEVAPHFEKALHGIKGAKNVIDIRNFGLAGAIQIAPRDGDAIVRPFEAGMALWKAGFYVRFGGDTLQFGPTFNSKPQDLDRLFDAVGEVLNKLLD

[5] = molecular target: T1, ω-amino acid transaminase derived from Pseudomonas sp. F-1; conditions: inhibitor 1 mM; without addition = 100; cited from earlier work
[6] = tested on: (R)-form-specific transaminase of Arthrobacter sp. KNK168; assay: Influence of reaction inhibitors on purified transaminase of present invention; assay type: biochemical; conditions: for Transaminase of Present Invention (Relative Activity: %) with inhibitor: inhibitor 1 mM, without addition = 100
Excerpt: as §1

[7] = tested on: transaminase (intracellular enzyme) of Arthrobacter sp. KNK168; assay: Activity of the transaminase (intracellular enzyme) against typical substrates of ω-aminotransferases; assay type: biochemical
[8] = tested on: benzylamine transaminase of Okada et al.; parameters: Transaminase of Okada et al. (Relative Activity: %), Substrate Specificity: concentration or dose not given beside the values; conditions: cited from earlier work; for Transaminase of Okada et al. (Relative Activity: %), Substrate Specificity: purified enzyme, patent publication data, pyruvic acid as amino acceptor
[9] = tested on: benzylamine transaminase of Okada et al.; conditions: without addition = 100, cited from earlier work
[10] = tested on: transaminase derived from Arthrobacter; assay: Usability as amino group donor, transaminase of present invention; assay type: biochemical; conditions: +/− without printed key, or words
Excerpt: Further, the transaminase derived from Arthrobacter which can be used in the present invention is different from the above-mentioned enzyme derived from Brevibacterium in many other aspects.

[11] = amino acceptor 2-ketoglutaric acid, (R)-1-phenylethylamine/pyruvic acid control = 100

## CCCC(C)N (racemic) [(RS)-1-Methylbutylamine]
[1]
  function as amino donor: functioned as amino donors
[2]
  (R)-DMA Formed (%), inducer in culture medium: 13.0%

## CCC(C)N (racemic) [(RS)-1-Methylpropylamine]
[1]
  function as amino donor: functioned as amino donors
[1]; 1% amino donor, 1% 1-(3,4-dimethoxyphenyl)-2-propanone, Triton X-100, pH 8.5, 35° C., 20 hours
  (R)-DMA Formed (%), amino group donor: 28.2%
[2]
  (R)-DMA Formed (%), inducer in culture medium: 22.3%

## CC(N)c1ccccc1 (racemic) [(RS)-1-Phenylethylamine]
[1]
  function as amino donor: most highly preferable
[2]
  (R)-DMA Formed (%), inducer in culture medium: 8.0%

## CCC(N)CO (racemic) [(RS)-2-Amino-1-butanol]
[2]
  (R)-DMA Formed (%), inducer in culture medium: 12.9%

## CC(N)C(C)(C)C (racemic) [(RS)-3-Amino-2,2-dimethylbutane]
[2]
  (R)-DMA Formed (%), inducer in culture medium: 18.6%

## CC(N)CC(=O)O (racemic) [DL-3-Aminobutyric acid]
[3]
  action of the transaminase derived from Arthrobacter on the substrate: does not act
[3]; purified enzyme
  Transaminase of Present Invention (Relative Activity: %), Substrate Specificity: 0%
[4]
  ω-Amino Acid Transaminase (Relative Activity: %), Substrate Specificity: 96%

## NC1C=CC=C(C(=O)O)C1 (racemic) [Gabaculine]
[5]
  ω-Amino Acid Transaminase (Relative Activity: %) with inhibitor: 0%
[6]
  Transaminase of Present Invention (Relative Activity: %) with inhibitor: 24%

## NCCCC(=O)O [4-Aminobutyric acid]
[7]; [11]
  Relative Activity (%) as amino donor: 0%
[3]
  action of the transaminase derived from Arthrobacter on the substrate: does not act
[3]; purified enzyme
  Transaminase of Present Invention (Relative Activity: %), Substrate Specificity: 0%
[4]
  ω-Amino Acid Transaminase (Relative Activity: %), Substrate Specificity: 40%

## COc1ccc(C[C@@H](C)N)cc1OC [(R)-DMA, (R)-1-(3,4-dimethoxyphenyl)-2-aminopropane]
[2]
  (R)-DMA Formed (%), inducer in culture medium: 0.9%

## NCc1ccccc1 [Benzylamine]
[3]; purified enzyme, 40 mM amino compound in substrate solution, 40 mM pyruvic acid, pH 8.3, 30° C., 1 hour, (R)-1-phenylethylamine = 100
  Relative Activity (%) of amino compounds: 0.8%
[3]; purified enzyme
  Transaminase of Present Invention (Relative Activity: %), Substrate Specificity: 0.8%
[4]
  ω-Amino Acid Transaminase (Relative Activity: %), Substrate Specificity: 45%
[8]; in the presence of pyruvic acid
  action of benzylamine transaminase on substrate: strongly acts
[8]
  Transaminase of Okada et al. (Relative Activity: %), Substrate Specificity: 100%

## O=S(=O)([O-])[O-].[Cu+2] [CuSO4]
[6]
  Transaminase of Present Invention (Relative Activity: %) with inhibitor: 44%
[9]; inhibitor 0.5 mM
  Transaminase of Okada et al. (Relative Activity: %) with inhibitor: 5%

## NO [Hydroxylamine]
[5]
  ω-Amino Acid Transaminase (Relative Activity: %) with inhibitor: 0%
[6]
  influence of reaction inhibitor on the transaminase derived from Arthrobacter: affected only a little
  Transaminase of Present Invention (Relative Activity: %) with inhibitor: 17%
[9]; inhibitor 0.1 mM
  Transaminase of Okada et al. (Relative Activity: %) with inhibitor: 30%

## NNc1ccccc1 [Phenylhydrazine]
[5]
  ω-Amino Acid Transaminase (Relative Activity: %) with inhibitor: 6%
[6]
  influence of reaction inhibitor on the transaminase derived from Arthrobacter: affected only a little
  Transaminase of Present Invention (Relative Activity: %) with inhibitor: 82%
[9]; inhibitor 1 mM
  Transaminase of Okada et al. (Relative Activity: %) with inhibitor: 27%

## NCCCCN [Putrescine]
[7]; [11]
  Relative Activity (%) as amino donor: 0%
[3]
  action of the transaminase derived from Arthrobacter on the substrate: does not act
[3]; purified enzyme
  Transaminase of Present Invention (Relative Activity: %), Substrate Specificity: 0%
[4]
  ω-Amino Acid Transaminase (Relative Activity: %), Substrate Specificity: 55%
[8]
  Transaminase of Okada et al. (Relative Activity: %), Substrate Specificity: 0%

## Cl.N [ammonium chloride]
[10]
  Amino Group Donor, Transaminase of Present Invention: cannot be used as an amino donor

## N[C@@H](CC(=O)O)C(=O)O [aspartic acid]
[10]
  Amino Group Donor, Transaminase of Present Invention: cannot be used as an amino donor

## N[C@@H](CCC(=O)O)C(=O)O [glutamic acid]
[10]
  Amino Group Donor, Transaminase of Present Invention: cannot be used as an amino donor

## CCCCN [n-Butylamine]
[3]
  action of the transaminase derived from Arthrobacter on the substrate: does not act
[3]; purified enzyme
  Transaminase of Present Invention (Relative Activity: %), Substrate Specificity: 0%
[4]
  ω-Amino Acid Transaminase (Relative Activity: %), Substrate Specificity: 60%
[8]
  Transaminase of Okada et al. (Relative Activity: %), Substrate Specificity: 0%

## O=C(O)c1cc[c]([Hg][Cl])cc1 [p-Chloromercuribenzoic acid]
[5]
  ω-Amino Acid Transaminase (Relative Activity: %) with inhibitor: 100%
[6]
  Transaminase of Present Invention (Relative Activity: %) with inhibitor: 53%
[9]; inhibitor 0.1 mM
  Transaminase of Okada et al. (Relative Activity: %) with inhibitor: 9%

## NCCC(=O)O [β-Alanine]
[7]
  activity of the transferase to amino donor: does not act
[7]; amino acceptor pyruvic acid, (R)-1-phenylethylamine control = 100
  Relative Activity (%) as amino donor: 0%
[3]
  action of the transaminase derived from Arthrobacter on the substrate: does not act
[3]; purified enzyme
  Transaminase of Present Invention (Relative Activity: %), Substrate Specificity: 0%
[4]
  ω-Amino Acid Transaminase (Relative Activity: %), Substrate Specificity: 100%
[8]
  Transaminase of Okada et al. (Relative Activity: %), Substrate Specificity: 0%

## NCCc1ccccc1 [β-Phenethylamine]
[3]; purified enzyme
  Transaminase of Present Invention (Relative Activity: %), Substrate Specificity: 0%
[4]
  ω-Amino Acid Transaminase (Relative Activity: %), Substrate Specificity: 54%
[8]
  Transaminase of Okada et al. (Relative Activity: %), Substrate Specificity: 9%
